Source: publication PMC11227536, “Modulation of the Meisenheimer complex metabolism of nitro-benzothiazinones by targeted C-6 substitution” (Communications Chemistry, 2024)

Test system: RAW 264.7 cells
Experiment: Hydride Meisenheimer complex (HMC) formation propensity assay, whole cell
Assay type: in vitro ADME, murine
Conditions: whole cell in vitro assay, relative to BTZ-043 (1)
Source text: As the main goal of our work, we focused on the impact of C-6 substituents on the propensity to form HMC in our recently developed whole cell in vitro assay. Following our standardized protocol, all measurements were normalized relative to BTZ-043 (1). Obtained HMC formation propensities (Table S5) were transformed into their negative decadic logarithm (pHMC) to ease data visualization and subsequent processing during chemoinformatics investigations (Fig. 5). […] In the case of esters, a plausible pattern according to the substituent size was observed. […] Similarly, dimethyl amide 7c and nitrile 9 produced a 14- and 12-fold larger ratio of HMC compared to 1, respectively. Esters 6a–e and oxazoline 7e were also more prone to HMC formation than 1, albeit to a considerably lesser extent (2.5–6-fold).
3. Hydride Meisenheimer complex formation propensity assay
The assay was performed as described previously. 6
RAW 264.7 cell cultivation […]
Samples were analyzed with a Thermo Vanquish Horizon UHPLC system (Thermo Fisher Scientific, Bremen, Germany) coupled to a Thermo Scientific QExactive Orbitrap mass spectrometer (Thermo Fisher Scientific, Bremen, Germany) by using a UPLC column (ACQUITY HSS T3, Waters, 1.8 µm particle size, 2.1 × 50 mm). […]

SMILES	HMC formation (in words)
C[C@H]1COC2(CCN(c3nc(=O)c4cc(C(=O)O)cc([N+](=O)[O-])c4s3)CC2)O1 [Compound 8]	Traces
C[C@H]1COC2(CCN(c3nc(=O)c4cccc([N+](=O)[O-])c4s3)CC2)O1 [Compound 23]	no detectable HMC formation
